Patent publication US20220401414A1, “TREATMENT AND PREVENTION OF A NEURODEGENERATIVE DISORDER” (Inflazome Limited, priority 2019, published 2022)

What was measured:
[1] = Study A: blood-brain barrier penetration, striatal MetaQuant microdialysis in healthy mice after oral dosing; type: in vivo, C57B1/6 mice; details: for average peak levels in left and right striatal dialysate: MetaQuant dialysate, not corrected for recovery; for time of average peak levels after compound administration: striatal dialysate
Method: The present study was designed to determine the free concentration of the compound of formula (I) in the left and right striatum of freely-moving adult male mice after oral administration.
Adult male C57B1/6 mice (22-28 g; Envigo, the Netherlands) were used for the experiments. Following arrival, animals were housed in groups of 5 in polypropylene cages (40×50×20 cm) with wire mesh top in a temperature (22±2° C.) and humidity (55±15%) controlled environment on a 12 hour light cycle (07.00-19.00). Following surgery, animals were housed individually (cages 30×30×40 cm). Standard diet (SDS Diets, RM1 PL) and domestic quality mains water were available ad libitum.
Mice were anesthetized using isoflurane (2% and 500 mL/min O2). Before surgery, Finadyne (1 mg/kg, s.c.) was administered for analgesia during surgery and the post-surgical recovery period. A mixture of bupivacaine and epinephrine was used for local analgesia of the incision site.
The animals were placed in a stereotaxic frame (Kopf instruments, USA). MetaQuant microdialysis probes with a 3 mm exposed polyacrylonitrile membrane (MQ-PAN 33) were implanted bilaterally into the left and right striatum (coordinates for the tip of the probe: AP=+0.8 mm (to bregma), ML=+/−1.7 mm (to midline), DV=−4.0 mm (to dura) with an angle of 0° and the incisor bar set at 0.0 mm. All coordinates were based on “The mouse brain in stereotaxic coordinates” by Paxinos and Franklin (2008). The probes were attached to the skull with a stainless-steel screw and dental cement.
The monosodium salt of the compound of formula (I) was formulated in sterilized tap water at concentrations (with respect to the non-salt form) of 0.2 and 4 mg/mL for oral dosing at 5 mL/kg; 1 mg/kg and 20 mg/kg, respectively.
The MetaQuant microdialysis probes were connected with flexible PEEK tubing (Western Analytical Products Inc. USA; PK005-020) to a microperfusion pump (Harvard) and perfused with a slow flow of artificial CSF (perfusate), containing 147 mM NaCl, 3.0 mM KCl, 1.2 mM CaCl2, and 1.2 mM MgCl2, at a flow rate of 0.12 μL/min and a carrier flow of UP+0.02 M FA+0.04% ascorbic acid at o.8 μL/min. After a minimum of two hours of prestabilisation, microdialysis samples were collected in 60 minute intervals. Following collection of two baseline samples, the compound of formula (I) (1 or 20 mg/kg in sterilised tap water) was administered orally at t=0 minutes. Samples were collected into mini-vials (Microbiotech/se AB, Sweden; 4001029) using an automated fraction collector (UV 8301501, TSE, Univentor, Malta). At the end of the experiment, the animals were sacrificed.
Microdialysate samples from MetaQuant probes contained a nominal volume of 55.2 μL dialysate. Levels of the compound of formula (I) in MetaQuant microdialysate samples were quantified by LC-MS/MS.
The dialysate samples were mixed with acetonitrile and an aliquot of this mixture was injected into the LC system by an automated sample injector (SIL-20AD, Shimadzu, Japan). Calibrators and in-run QC samples were prepared in analytical dialysate of the same composition as the microdialysate samples. […]
Suitable in-run calibration curves were fitted using weighted (1/x) regression and the sample concentrations were determined using these calibration curves. […]

IL-1β = test: Study H: IL-1β ELISA in plasma of PFF-Synuclein mice; type: in vivo, C57BL6 mice; details: 0.3 mg/ml drinking water, 12 months after PFF-Synuclein injections
Source text: To determine the oral efficacy of the compound of formula (I) in a chronic progressive model of Parkinson's disease (PD), the preformed fibrils (PFF) mouse model, using a prophylactic and therapeutic dosing schedule.
8-week-old C57BL6 male mice (obtained from ARC, Perth, Australia) were housed under a 12-h light cycle in a SPF climate-controlled facility with food and water provided ad libitum for two weeks prior to study initiation. The compound of formula (I) (or water alone for control animals) was administrated to mice in drinking water at 0.3 mg/ml. Animals were separated into the groups described in Table 9, with ten animals initiated in each cohort. […]
Recombinant human a-synuclein was obtained from rPeptide Inc., and in vitro fibril generation was performed with a final concentration of 2 mg/ml in phosphate-buffered saline (PBS) by incubation at 37° C. with agitation in an orbital mixer (400 rpm) for 7 days with daily cycles of sonication used to break down fibrillar aggregates as outlined in previously published reports (see Luk et al., Science, 2012, vol. 338(6109), pp. 949-53; and Zhang et al., Methods Mol. Biol., 2019, vol. 1948, pp. 45-57, which are incorporated in their entirety herein by reference). The generation of fibrillar α-synuclein species was confirmed by transmission electron microscopy and Thioflavin T fluorescence prior to use. […]

- average peak levels in left and right striatal dialysate ([1]; 1 mg/kg oral (monosodium salt in sterilised tap water)): 12 to 13 nM
- time of average peak levels after compound administration ([1]; 1 mg/kg oral): 5 h
- average peak levels in left and right striatal dialysate ([1]; 20 mg/kg oral (monosodium salt in sterilised tap water)): 201 to 243 nM
- time of average peak levels after compound administration ([1]; 20 mg/kg oral): 6 h
Compound: CC(C)n1ccc(S(=O)(=O)NC(=O)Nc2c3c(cc4c2CCC4)CCC3)n1 [compound of formula (I)]
- blood-brain barrier penetration ([1]; oral administration): cross the blood-brain barrier following oral administration
- circulating IL-1β in plasma compared with the PFF-Synuclein group (IL-1β; prophylactic treatment): significant decrease in circulating IL-1β
- circulating IL-1β in plasma compared with the PFF-Synuclein group (IL-1β; therapeutic treatment): significant decrease in circulating IL-1β
